Experimental data taken from paper PMC8073005, “Antifungal Activity and DNA Topoisomerase Inhibition of Hydrolysable Tannins from Punica granatum L” (International Journal of Molecular Sciences, 2021).
Converted amounts (≈) assume the structure as drawn. “And” between values parts separate entries of the source, which are not always exact repeats. Equal values may be shown once. Read-outs that look alike come from different tables or passages of the source.

Experiments:
[1] = system: Alternaria alternata AL19; experiment: MIC, micro-spectrophotometric growth assay (phytopathogens); format: cell-based; conditions: for MIC: Alternaria alternata AL19, PDB, 24 °C, dark, imazalil at label dose, read-out: Minimum inhibitory concentration (MIC)
Candida albicans SC 5314 [2] = experiment: MIC, broth microdilution (human pathogens); format: cell-based; conditions: SC5314; Candida albicans SC 5314; SDB, 30 °C, 48 h; read-out: Minimum inhibitory concentration (MIC)
Candida parapsilosis 7 = experiment: MIC, broth microdilution (human pathogens); format: cell-based; conditions: Lodderomyces parapsilosis; Candida parapsilosis 7; SDB, 30 °C, 48 h; read-out: Minimum inhibitory concentration (MIC)
Candida strains = experiment: Agar Disk Diffusion Assay, Candida strains; format: cell-based
[3] = system: Saccharomyces cerevisiae 42; experiment: MIC, broth microdilution (human pathogens); format: cell-based; conditions: Saccharomyces cerevisiae 42; SDB, 30 °C, 48 h; read-out: Minimum inhibitory concentration (MIC)
[4] = system: Aspergillus brasiliensis ATCC 16404; experiment: MIC, broth microdilution (human pathogens); format: cell-based; conditions: ATCC16404; Aspergillus brasiliensis ATCC 16404; SDB, 30 °C, 48 h; read-out: Minimum inhibitory concentration (MIC)
Candida albicans H = experiment: MIC, broth microdilution (human pathogens); format: cell-based; conditions: Candida albicans H; SDB, 30 °C, 48 h; read-out: Minimum inhibitory concentration (MIC)
[5] = system: Colletotrichum acutatum s.s. M146-2; experiment: MIC, micro-spectrophotometric growth assay (phytopathogens); format: cell-based, Colletotrichum acutatum sensu stricto; conditions: for MIC: Colletotrichum acutatum s.s. M146-2, PDB, 24 °C, dark, imazalil at label dose, read-out: Minimum inhibitory concentration (MIC)
Candida albicans SC 5314 [6] = experiment: Time-kill curves; format: cell-based; conditions: C. albicans SC 5314; compound at its MIC value; 0–96 h

Compound: O=c1oc2c(O)c(O)cc3c(=O)oc4c(O)c(O)cc1c4c23 [Ellagic Acid, ellagic acid]
- antifungal activity (growth curve) ([1]; A. alternata, Figure S3): no or little antifungal activity
- MIC [1]: 165.4 µM and 165 µM
- MIC (Candida albicans SC 5314 [2]): 2.5 µM (≈ 0.755 µg/mL)
- MIC (Candida parapsilosis 7): 331 µM (≈ 100 µg/mL)
- share of Candida strains with inhibition zone from 21 to 30 mm (Candida strains; 25 μg): 64%
- share of Candida tested strains with growth inhibition zone from 11 to 20 mm (Candida strains; 25 μg): 36%
- share of Candida strains with growth inhibition from 21 to 30 mm (Candida strains; 62.5 µg): 73%
- MIC [3]: 662 µM (≈ 200 µg/mL)
- MIC [4]: 662 µM (≈ 200 µg/mL)
- MIC (Candida albicans H): 331 µM (≈ 100 µg/mL)
- MIC [5]: 165.4 µM (≈ 50 µg/mL)
- MIC ([5]; S.S.M1462): 165 µM (≈ 50 µg/mL)
- time-kill curve (susceptibility time-course) (Candida albicans SC 5314 [6]): better antifungal activity against the reference C. albicans strain after 72 h of exposure

Compound: O=C1OC[C@H]2OC(O)[C@H](O)[C@@H](O)[C@@H]2OC(=O)c2cc(O)c(O)c(O)c2-c2c(O)c(O)c3oc(=O)c4c(c(O)c(O)c5oc(=O)c2c3c54)-c2c1cc(O)c(O)c2O (mixture of isomers) [Punicalin, punicalin]
- MIC [1]: 255.6 µM and 256 µM
- MIC (Candida albicans SC 5314 [2]): 127 µM
- MIC (Candida parapsilosis 7): 3.8 µM
- share of Candida strains with inhibition zone from 11 to 20 mm (Candida strains; 100 µg): 91%
- MIC [3]: 3.8 µM
- MIC [4]: 1.9 µM
- MIC (Candida albicans H): 1.9 µM
- growth reduction ([5]; C. acutatum s.s., up to 24 h of incubation): 83%
- MIC [5]: 255.6 µM
- MIC ([5]; S.S.M1462): 256 µM
